Columns and labels:
Assay type in all cases: in vivo
[1] = system: brown rice planthoppers (Nilaparvata lugens); assay: Insecticidal test for brown rice planthoppers; conditions: Nilaparvata lugens, 144 h; 500 ppm chemical solution, rice leaf sheaths soaked, third-instar larvae, six days, 25°C; read-out: death rate
How it was run: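 Rice leaf sheaths dipped ~10 s in 500 ppm compound solution (emulsion diluted in water with spreader), air-dried, then infested with five third-instar larvae per tube at 25 °C. Mortality scored after 6 days, death rate calculated, in duplicate.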

[2] = system: green peach aphids (Myzus persicae); assay: Insecticidal test for green peach aphids; conditions: 500 ppm chemical solution sprinkled (2.5 mg/cm^2), wingless imagoes on leaf disc, six days, 25°C; for mortality at 500 µg/mL: Myzus persicae, foliar, 144 h, read-out: death rate
Method: Wet absorbent cotton was laid on each glass dish having an inner diameter of 3 cm, a Chinese olive leaf cut into a circle having a diameter of 3 cm was placed thereon, and four wingless green peach aphids (Myzus persicae) imagoes were released. After a day, a 10% by mass emulsion of the presently invented compound prepared according to the above formulation example for an emulsion was diluted with water containing a spreader to prepare a chemical solution having a concentration of 500 ppm. The chemical solution prepared was sprinkled (2.5 mg/cm^2) with a rotary tower sprinkler, and the dishes were capped and accommodated in a thermostatic room at 25°C. […] The test was carried out in duplicate.

[3] = system: western flower thrips (Frankliniella occidentalis); assay: Insecticidal activity against western flower thrips; conditions: Frankliniella occidentalis, 48 h; 500 ppm chemical solution sprinkled (2.5 mg/cm^2), larvae on common bean leaf, after 2 days; read-out: death rate
How it was run: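 Bean leaf squares on wet filter paper inoculated with 20 larvae. Compound emulsion diluted with spreader-containing water to 500 ppm and sprayed at 2.5 mg/cm^2 by rotary tower. Run in duplicate.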

[4] = system: diamondback moths (Plutella xylostella); assay: Insecticidal test for diamondback moths; conditions: Plutella xylostella, 144 h; 500 ppm chemical solution, leaves soaked, third-instar larvae, six days, 25°C; read-out: death rate
How it was run: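 Leaves dipped about 10 s in a 500 ppm aqueous dilution of an emulsion formulation with spreader, then air-dried. Five third-instar larvae released per dish and held at 25 °C. Tested in duplicate.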

[5] = system: cat fleas (Ctenocephalides felis); assay: whole plant or invertebrate; conditions: 72 h, read-out: death rate
How it was run: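 Glass containers (25 cm² inner surface) were coated with 250 µl of a 1000 ppm acetone solution, and the acetone was evaporated to leave a dry film. Five mixed-sex adult fleas were confined per container at 25°C. Mortality was scored after 3 days.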

Compound | mortality at 500 µg/mL [1] [%] | mortality at 500 µg/mL [2] [%] | mortality at 500 µg/mL [3] [%] | mortality at 500 µg/mL [4] [%] | mortality at 10 µg/cm2 [5] [%] | death rate ([2]; 8640 min) [%]
O=C(Nc1ccc(F)cc1)C1=C(O)CC(c2ccc(C(F)(F)F)c(-c3ccc(F)nc3)c2)NC1=O (stereo not shown) [1-001, N-(4-fluorophenyl)-6-[3-(6-fluoropyridin-3-yl)-4-(trifluoromethyl)phenyl]-4-hydroxy-2-oxo-1,2,5,6-tetrahydropyridine-3-carboxamide] | ≥ 90 | ≥ 90 | ≥ 90 | ≥ 90 | ≥ 50 | –
O=C(Nc1ccc(F)cc1)C1=C(O)CC(c2ccc(C(F)(F)F)c(-c3ccccc3)c2)NC1=O (stereo not shown) [1-004] | – | ≥ 90 | – | ≥ 90 | ≥ 50 | –
O=C(Nc1ccc(F)cc1)C1=C(O)CC(c2ccc(C(F)(F)F)c(-c3ccccc3F)c2)NC1=O (stereo not shown) [1-005] | – | ≥ 90 | ≥ 90 | ≥ 90 | ≥ 50 | –
CSc1ccccc1-c1cc(C2CC(O)=C(C(=O)Nc3ccc(F)cc3)C(=O)N2)ccc1C(F)(F)F (stereo not shown) [1-008] | – | ≥ 90 | ≥ 90 | ≥ 90 | ≥ 50 | –
CSc1ccc(-c2cc(C3CC(O)=C(C(=O)Nc4ccc(F)cc4)C(=O)N3)ccc2C(F)(F)F)cc1 (stereo not shown) [1-009] | – | ≥ 90 | ≥ 90 | ≥ 90 | ≥ 50 | –
CC(=O)c1cccc(-c2cc(C3CC(O)=C(C(=O)Nc4ccc(F)cc4)C(=O)N3)ccc2C(F)(F)F)c1 (stereo not shown) [1-011] | – | ≥ 90 | ≥ 90 | ≥ 90 | ≥ 50 | –
CC(=O)c1ccc(-c2cc(C3CC(O)=C(C(=O)Nc4ccc(F)cc4)C(=O)N3)ccc2C(F)(F)F)cc1 (stereo not shown) [1-012] | – | ≥ 90 | – | – | ≥ 50 | –
O=C(Nc1ccc(F)cc1)C1=C(O)CC(c2ccc(C(F)(F)F)c(-c3ccncc3)c2)NC1=O (stereo not shown) [1-014] | ≥ 90 | ≥ 90 | ≥ 90 | ≥ 90 | ≥ 50 | –
O=C(Nc1ccc(F)cc1)C1=C(O)CC(c2ccc(C(F)(F)F)c(-c3ccoc3)c2)NC1=O (stereo not shown) [1-015] | – | ≥ 90 | ≥ 90 | ≥ 90 | ≥ 50 | –
COc1ccccc1-c1cc(C2CC(O)=C(C(=O)Nc3ccc(F)cc3)C(=O)N2)ccc1C(F)(F)F (stereo not shown) [1-016] | – | ≥ 90 | ≥ 90 | ≥ 90 | ≥ 50 | –
COc1cccc(-c2cc(C3CC(O)=C(C(=O)Nc4ccc(F)cc4)C(=O)N3)ccc2C(F)(F)F)c1 (stereo not shown) [1-017] | – | ≥ 90 | ≥ 90 | ≥ 90 | ≥ 50 | –
CS(=O)(=O)c1ccc(-c2cc(C3CC(O)=C(C(=O)Nc4ccc(F)cc4)C(=O)N3)ccc2C(F)(F)F)cc1 (stereo not shown) [1-019] | – | ≥ 90 | ≥ 90 | ≥ 90 | ≥ 50 | –
N#Cc1ccc(-c2cc(C3CC(O)=C(C(=O)Nc4ccc(F)cc4)C(=O)N3)ccc2C(F)(F)F)cc1 (stereo not shown) [1-023] | – | ≥ 90 | ≥ 90 | ≥ 90 | ≥ 50 | –
O=C(Nc1ccc(Cl)nc1)C1=C(O)CC(c2cnc(Cl)c(-c3ccc(F)nc3)c2)NC1=O (stereo not shown) [2-010] | ≥ 90 | ≥ 90 | ≥ 90 | ≥ 90 | ≥ 50 | –
O=C(Nc1ccc(Cl)cc1)C1=C(O)CC(c2cnc(Cl)c(-c3ccc(F)nc3)c2)NC1=O (stereo not shown) [2-035, 6'-chloro-N-(4-chlorophenyl)-6"-fluoro-4-hydroxy-6-oxo-1,2,3,6-tetrahydro-[2,3':5',3"-terpyridine]-5-carboxamide] | ≥ 90 | ≥ 90 | ≥ 90 | ≥ 90 | ≥ 50 | –
O=C(Nc1ccc(F)cc1)C1=C(O)CC(c2cnc(Cl)c(-c3cncc(F)c3)c2)NC1=O (stereo not shown) [2-058] | ≥ 90 | ≥ 90 | ≥ 90 | ≥ 90 | ≥ 50 | –
O=C(Nc1ccc(F)nc1)C1=C(O)CC(c2cnc(Cl)c(-c3ccccc3)c2)NC1=O (stereo not shown) [2-091] | ≥ 90 | ≥ 90 | ≥ 90 | ≥ 90 | ≥ 50 | –

Compound | mortality at 500 µg/mL [1] [%] | mortality at 500 µg/mL [2] [%] | mortality at 500 µg/mL [3] [%] | mortality at 500 µg/mL [4] [%] | mortality at 10 µg/cm2 [5] [%] | death rate ([2]; 8640 min) [%]
N#Cc1ccc(NC(=O)C2=C(O)CC(c3cnc(Cl)c(-c4cccnc4)c3)NC2=O)cn1 (stereo not shown) [2-097] | ≥ 90 | ≥ 90 | – | ≥ 90 | ≥ 50 | –
O=C(Nc1cnc(Cl)cn1)C1=C(O)CC(c2cnc(Cl)c(-c3cccnc3)c2)NC1=O (stereo not shown) [2-098] | ≥ 90 | ≥ 90 | – | ≥ 90 | ≥ 50 | –
O=C(Nc1cnc(Br)cn1)C1=C(O)CC(c2cnc(Cl)c(-c3cccnc3)c2)NC1=O (stereo not shown) [2-099] | ≥ 90 | ≥ 90 | ≥ 90 | ≥ 90 | ≥ 50 | –
O=C(Nc1ncc(Cl)cn1)C1=C(O)CC(c2cnc(Cl)c(-c3cccnc3)c2)NC1=O (stereo not shown) [2-100] | ≥ 90 | ≥ 90 | ≥ 90 | ≥ 90 | ≥ 50 | –
O=C(Nc1cncc(F)c1)C1=C(O)CC(c2cnc(Cl)c(-c3cnccc3F)c2)NC1=O (stereo not shown) [2-137] | ≥ 90 | ≥ 90 | ≥ 90 | ≥ 90 | ≥ 50 | –
O=C(Nc1ncccc1F)C1=C(O)CC(c2cnc(Cl)c(-c3cnccc3F)c2)NC1=O (stereo not shown) [2-141] | ≥ 90 | ≥ 90 | ≥ 90 | ≥ 90 | ≥ 50 | –
O=C(Nc1cnccc1F)C1=C(O)CC(c2cnc(Cl)c(-c3cncc(Cl)c3)c2)NC1=O (stereo not shown) [2-146] | ≥ 90 | ≥ 90 | ≥ 90 | ≥ 90 | ≥ 50 | –
O=C(Nc1nccs1)C1=C(O)CC(c2cnc(C(F)(F)F)c(-c3ccc(F)nc3)c2)NC1=O (stereo not shown) [2-184] | ≥ 90 | ≥ 90 | ≥ 90 | ≥ 90 | ≥ 50 | –
Cc1cccc(-c2cc(C3CC(O)=C(C(=O)Nc4ncccn4)C(=O)N3)cnc2Cl)c1 (stereo not shown) [2-271] | ≥ 90 | ≥ 90 | ≥ 90 | ≥ 90 | ≥ 50 | –
Cc1cccc(-c2cc(C3CC(O)=C(C(=O)Nc4cccnc4Cl)C(=O)N3)cnc2Cl)c1 (stereo not shown) [2-274] | – | ≥ 90 | – | ≥ 90 | ≥ 50 | –
C#Cc1ccc(NC(=O)C2=C(O)CC(c3cnc(Cl)c(-c4cccc(C)c4)c3)NC2=O)cc1 (stereo not shown) [2-280] | – | ≥ 90 | ≥ 90 | ≥ 90 | ≥ 50 | –
O=C(Nc1ccc(F)cc1)C1=C(O)CC(c2nc(-c3cccc(F)c3)no2)NC1=O (stereo not shown) [3-011] | ≥ 90 | ≥ 90 | ≥ 90 | ≥ 90 | ≥ 50 | –
O=C(Nc1ccc(F)cc1)C1=C(O)CC(c2nc(-c3cccc(F)c3F)no2)NC1=O (stereo not shown) [3-033] | ≥ 90 | ≥ 90 | – | ≥ 90 | ≥ 50 | –
Cc1cccc(-c2noc(C3CC(O)=C(C(=O)Nc4cc(F)ccn4)C(=O)N3)n2)c1 (stereo not shown) [3-053] | ≥ 90 | ≥ 90 | – | ≥ 90 | ≥ 50 | –
O=C(Nc1ccc(F)cc1)C1=C(O)CC(c2nc(-c3ccsc3)no2)NC1=O (stereo not shown) [3-109] | – | ≥ 90 | ≥ 90 | ≥ 90 | ≥ 50 | –
O=C(Nc1cccc(Cl)c1F)C1=C(O)CC(c2nc(-c3ccnc(F)c3)no2)NC1=O (stereo not shown) [3-248] | – | ≥ 90 | – | ≥ 90 | ≥ 50 | –
Cc1ccc(NC(=O)C2=C(O)CC(c3nc(-c4ccnc(F)c4)no3)NC2=O)c(C)c1 (stereo not shown) [3-266] | – | – | – | – | – | ≥ 90
